Several values for one entry are separate records, joined by “and”; a condition that tells them apart may be missing. Identical values can stand only once.
Columns and labels:
intestinal flora of mice = assay: Co-culturing AP with cecum samples from mice; assay type: in vitro ADME; details: AP 10 μg/mL, anaerobic, 37°C, 6 h
Experimental: The cecum contents from mice were collected and mixed with sterilized anaerobic medium in a ratio of 1.0 g to 10 mL, with gentle agitation. After filtered, the mixed medium containing the intestinal flora was placed in an anaerobic environment and preincubated at 37°C for 30 min before use. Mixed medium with or without APS reductase inhibitor bromocriptine mesylate (20 μg/mL) was incubated with AP (10 μg/mL), while autoclaved mixed medium without APS reductase inhibitor served as the control. Incubation was performed in a shaking incubator at 37°C for 6 h, with strict maintenance of anaerobic condition throughout the process.[44] Similarly, D. piger (0.2 mL, 1 × 10^8 CFU/mL) with or without inhibitor, was incubated with AP for 0, 3, 6, and 12 h, with autoclaved D. piger without inhibitor serving as the control. The reaction was terminated by adding cold methanol contained IS. And then samples were analyzed by UPLC-MS/MS to detect the concentrations of AP and APM. Concentrations of APS reductase and HSO3^− were also determined at the end of incubation.
For the determination of APS reductase concentration, the supernatant from mouse cecum contents and the D. piger strain were assessed using microorganism APS reductase elisa assay kit (Shanghai Senxingyan Biotechnology Co., Ltd., China), following the instructions provided with the kit. For the determination of HSO3^− concentration, cecum contents from mice or rats were weighed and homogenized in five volumes of normal saline (based on tissue weight). The homogenate was then subjected to centrifugation at 13,000 rpm and 4°C for 15 min. The supernatant (or perfusate) was collected and mixed with 0.2% formaldehyde, 0.05% basic fuchsin, and 0.01% EDTA-Na2 in a ratio of 1:1:1:9 under acidic conditions. To establish a standard curve, different concentrations of NaHSO3 were used. Subsequently, the absorbance of the resulting solutions was measured at a wavelength of 560 nm after 40 min.

[1] = Plasma pharmacokinetics of AP after oral administration in rats; assay type: in vivo; details: for AUC(0-t) / Cmax / Tmax / half-life / AUC(0-inf): rat, plasma, po, 120 mg/kg, mean ± SD; for AUC(0-t) / Cmax / Tmax / half-life / AUC(0-inf) / Fr (%) relative oral bioavailability: AP 120 mg/kg oral gavage
Experimental: Control and ABX rats were orally administered a single dose of AP at 120 mg/kg. Blood samples (500 μL) were collected at predetermined time intervals (0, 5, 10, 20, 30, 40, 60, 90, 120, 180, 240, 360, and 480 min). In some cases, APS reductase inhibitor bromocriptine mesylate (20 mg/kg, p.o.) or Na2SO4 (200 mg/kg, p.o.) was given to rats 1 week before AP treatment.
The pharmacokinetic parameters of AP including peak time (Tmax), maximum concentration (Cmax), area under the curve from zero time to the last time point measured (AUC0-t), area under the curve from zero time to infinity (AUC0-∞), and elimination half-life (t1/2) were estimated using DAS 2.0 software (Shanghai, China). The relative oral bioavailability (Fr) of AP was calculated by the following equation: Fr(%)=AUC0−∞of ABX/Inhibitor/SO42−/D.piger/AUC0−∞of Control×100%
An ACQUITY^TM UPLC-MS/MS system equipped with an ACQUITY^TM UPLC BEH C18 Column (50 × 2.1 mm I.D., 1.7 μm, Waters, Milford, MA, USA) was utilized for the quantification of AP and APM as previously described.[47] Briefly, the detection samples (50 μL) were mixed with 50 μL of IS (50 ng/mL). AP and APM were extracted by 400 μL cold methanol. Supernatants were dried under nitrogen stream. Then, the residue was dissolved with 50% methanol in water, centrifuged for 30 min at 13,000 rpm, and 10 µL of the supernatant was subjected to UPLC-MS/MS analysis. The mobile phases consisted of eluent A (water) and eluent B (methanol) with a gradient elution as follows: 0–0.8 min, 10% B; 0.8–1.2 min, 10–90% B; 1.2–5.0 min, 90% B; 5.0–5.5 min, 90–10% B; 5.5–7.0 min, 10% B. The flow rate was 0.3 mL/min and the injection volume of all samples was 10 μL. The quantification of AP, APM and IS was performed by UPLC-MS/MS using an MRM method with the transitions of m/z 349.1→m/z 287.2 for AP, m/z 413.2→m/z 287.2 for APM, m/z 269→m/z 133 for IS.

SULTs = assay: AP incubation with liver S9 fraction (SULT-mediated metabolism); assay type: in vitro ADME, human, rat, mouse; details: HLS9, RLS9, MLS9 with PAPS, 37°C
Experimental: A sulfonate reaction system and incubation procedures were followed those of a previous study^4. Briefly, the reaction mixture (total volume 200 μL) consists of 10 μL enzymes (MLS9, RLS9 and HLS9 at different concentrations), 5 μL magnesium chloride (1 mM), 5 μL 3’-phosphoadenosine-5’-phosphosulfate (PAPS, 0.05 mM), 178 μL potassium phosphate (KPI) buffer (44.5 mM, pH 7.4) and 2 μL AP at different concentrations. The mixture was prepared in triplicates and incubated in a shaking water bath at 37°C for various durations. The reactions were terminated by the addition of acetonitrile solution.

[2] = SD, rats, Control group (Table 1), n = 4
[3] = Sprague-Dawley (SD), rats, Control group (Table 2), n = 4
[4] = Sprague-Dawley (SD), rats, Inhibitor group (bromocriptine mesylate 20 mg/kg p.o. 1 week before), n = 4
[5] = Sprague-Dawley (SD), rats, SO4^2- group (Na2SO4 200 mg/kg p.o. 1 week before), n = 5
[6] = Sprague-Dawley, rats, Control group (Table 2), n = 4
[7] = Sprague-Dawley, rats, Inhibitor group (bromocriptine mesylate 20 mg/kg p.o. 1 week before), n = 4
[8] = Sprague-Dawley, rats, SO4^2- group (Na2SO4 200 mg/kg p.o. 1 week before), n = 5

In the case of `C=C1CC[C@@H]2[C@](C)(CO)[C@H](O)CC[C@@]2(C)[C@@H]1C/C=C1/C(=O)OC[C@H]1O` [AP, Andrographolide], the “conversion of AP into APM by the intestinal flora” value (intestinal flora of mice) is reported as “notable conversion”, the “enhancement in the relative oral bioavailability of AP” value ([1]; ABX-treated rats vs Control) is reported as 70.11% and 70% and the AUC(0-t) ([1]; SD, rats, ABX group, n = 4) is reported as 4430 ng·h/mL. The Cmax ([1]; SD, rats, ABX group, n = 4) was 1330 ± 250 ng/mL, the Tmax ([1]; SD, rats, ABX group, n = 4) was 0.708 h and the half-life ([1]; SD, rats, ABX group, n = 4) was 2.31 ± 0.734 h. It also gave an AUC(0-t) [1, 2] of 2360 ng·h/mL, a Cmax [1, 2] of 690 ± 190 ng/mL and a Tmax [1, 2] of 0.833 h. It also gave a half-life [1, 2] of 3.07 ± 0.928 h, an AUC(0-inf) [1, 3] of 3690 ng·h/mL and an AUC(0-t) [1, 3] of 3440 ng·h/mL. For the same compound, the AUC(0-inf) [1, 4] was 8020 ng·h/mL, the AUC(0-t) [1, 4] was 7520 ng·h/mL and the AUC(0-inf) [1, 5] was 1870 ng·h/mL. For the same compound, the AUC(0-t) [1, 5] was 1360 ng·h/mL, the half-life [1, 5] was 4.38 ± 3.23 h and the AUC(0-inf) ([1]; Sprague-Dawley, rats, ABX group, n = 4) was 5110 ng·h/mL. The AUC(0-inf) ([1]; Sprague-Dawley, rats, Control group (Table 1), n = 4) was 3000 ng·h/mL, the Cmax [1, 6] was 1420 ± 710 ng/mL and the Tmax [1, 6] was 0.5 h. For the same compound, the half-life [1, 6] was 2.04 ± 0.397 h, the Cmax [1, 7] was 2750 ± 710 ng/mL and the Tmax [1, 7] was 0.583 h. The half-life [1, 7] was 1.82 ± 0.589 h, the Cmax [1, 8] was 490 ± 190 ng/mL and the Tmax [1, 8] was 0.533 h. The “Fr (%) relative oral bioavailability” value ([1]; rats, ABX group vs Control (AUC0-∞ ratio)) was 170.11%, the “Fr (%) relative oral bioavailability” value ([1]; rats, Inhibitor group vs Control (AUC0-∞ ratio)) was 217.24% and the “Fr (%) relative oral bioavailability” value ([1]; rats, SO4^2- group vs Control (AUC0-∞ ratio)) was 50.70%. For the same compound, the “increase in AP bioavailability” value ([1]; rats, inhibition of APS reductase by bromocriptine mesylate) was 117.24% and 117%, the “reduction in AP bioavailability” value ([1]; rats, treatment of Na2SO4) was 49.30% and the “production of the metabolite APM in SULT-mediated metabolism incubation system” value (SULTs) was “absence of detectable production”.

Source: publication PMC11404609, “Gut microbiota-mediated C-sulfonate metabolism impairs the bioavailability and anti-cholestatic efficacy of andrographolide” (Gut Microbes, 2024)
